Source: paper PMC6218510, “Step Sizes and Rate Constants of Single-headed Cytoplasmic Dynein Measured with Optical Tweezers” (Scientific Reports, 2018)

Experiments:
[1] = target: T1, D384GB (D384 with GFP at the linker N-terminus and BFP in AAA2) (Homo sapiens, UniProt Q14204); test: ATPase assay, phosphate release (EnzChek, absorbance […] nm); type: biochemical; details: basal, no microtubules; 25 °C; read-out: Michaelis-Menten constant
T1 construct: gene DYNC1H1; Gly1288-Glu4646; N-terminal FLAG, BCCP and AcGFP kept; BFP inserted between Glu2404 and Gly2405 (AAA2); Sf9; monomer
T1 sequence (Q14204 1288-2404): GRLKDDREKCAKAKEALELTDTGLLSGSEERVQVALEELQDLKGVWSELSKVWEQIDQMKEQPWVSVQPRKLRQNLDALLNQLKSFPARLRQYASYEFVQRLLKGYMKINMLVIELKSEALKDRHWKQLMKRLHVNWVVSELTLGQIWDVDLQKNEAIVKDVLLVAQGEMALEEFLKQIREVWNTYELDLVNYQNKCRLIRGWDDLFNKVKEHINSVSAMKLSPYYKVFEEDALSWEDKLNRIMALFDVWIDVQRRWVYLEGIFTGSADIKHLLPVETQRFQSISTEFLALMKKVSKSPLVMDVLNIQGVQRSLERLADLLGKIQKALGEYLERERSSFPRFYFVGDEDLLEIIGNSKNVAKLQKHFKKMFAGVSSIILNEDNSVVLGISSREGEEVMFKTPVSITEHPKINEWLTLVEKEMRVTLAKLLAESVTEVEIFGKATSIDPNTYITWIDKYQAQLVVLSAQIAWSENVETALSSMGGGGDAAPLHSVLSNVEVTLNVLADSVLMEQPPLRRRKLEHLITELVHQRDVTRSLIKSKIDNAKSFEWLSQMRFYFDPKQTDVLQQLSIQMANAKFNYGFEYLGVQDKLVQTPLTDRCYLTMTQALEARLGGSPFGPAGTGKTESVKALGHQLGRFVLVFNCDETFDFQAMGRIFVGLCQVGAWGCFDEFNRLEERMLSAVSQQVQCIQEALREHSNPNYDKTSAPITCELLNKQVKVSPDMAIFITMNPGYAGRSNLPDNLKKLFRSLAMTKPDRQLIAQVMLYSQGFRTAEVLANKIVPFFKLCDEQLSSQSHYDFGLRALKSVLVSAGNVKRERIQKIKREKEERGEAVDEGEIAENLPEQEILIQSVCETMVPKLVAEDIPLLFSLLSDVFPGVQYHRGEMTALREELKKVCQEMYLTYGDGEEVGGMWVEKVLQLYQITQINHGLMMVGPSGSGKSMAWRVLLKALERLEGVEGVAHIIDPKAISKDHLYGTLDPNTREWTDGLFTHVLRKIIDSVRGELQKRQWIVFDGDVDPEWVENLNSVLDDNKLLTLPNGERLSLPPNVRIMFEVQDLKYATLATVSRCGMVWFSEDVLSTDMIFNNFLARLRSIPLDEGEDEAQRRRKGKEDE
T1 sequence (Q14204 2405-4646): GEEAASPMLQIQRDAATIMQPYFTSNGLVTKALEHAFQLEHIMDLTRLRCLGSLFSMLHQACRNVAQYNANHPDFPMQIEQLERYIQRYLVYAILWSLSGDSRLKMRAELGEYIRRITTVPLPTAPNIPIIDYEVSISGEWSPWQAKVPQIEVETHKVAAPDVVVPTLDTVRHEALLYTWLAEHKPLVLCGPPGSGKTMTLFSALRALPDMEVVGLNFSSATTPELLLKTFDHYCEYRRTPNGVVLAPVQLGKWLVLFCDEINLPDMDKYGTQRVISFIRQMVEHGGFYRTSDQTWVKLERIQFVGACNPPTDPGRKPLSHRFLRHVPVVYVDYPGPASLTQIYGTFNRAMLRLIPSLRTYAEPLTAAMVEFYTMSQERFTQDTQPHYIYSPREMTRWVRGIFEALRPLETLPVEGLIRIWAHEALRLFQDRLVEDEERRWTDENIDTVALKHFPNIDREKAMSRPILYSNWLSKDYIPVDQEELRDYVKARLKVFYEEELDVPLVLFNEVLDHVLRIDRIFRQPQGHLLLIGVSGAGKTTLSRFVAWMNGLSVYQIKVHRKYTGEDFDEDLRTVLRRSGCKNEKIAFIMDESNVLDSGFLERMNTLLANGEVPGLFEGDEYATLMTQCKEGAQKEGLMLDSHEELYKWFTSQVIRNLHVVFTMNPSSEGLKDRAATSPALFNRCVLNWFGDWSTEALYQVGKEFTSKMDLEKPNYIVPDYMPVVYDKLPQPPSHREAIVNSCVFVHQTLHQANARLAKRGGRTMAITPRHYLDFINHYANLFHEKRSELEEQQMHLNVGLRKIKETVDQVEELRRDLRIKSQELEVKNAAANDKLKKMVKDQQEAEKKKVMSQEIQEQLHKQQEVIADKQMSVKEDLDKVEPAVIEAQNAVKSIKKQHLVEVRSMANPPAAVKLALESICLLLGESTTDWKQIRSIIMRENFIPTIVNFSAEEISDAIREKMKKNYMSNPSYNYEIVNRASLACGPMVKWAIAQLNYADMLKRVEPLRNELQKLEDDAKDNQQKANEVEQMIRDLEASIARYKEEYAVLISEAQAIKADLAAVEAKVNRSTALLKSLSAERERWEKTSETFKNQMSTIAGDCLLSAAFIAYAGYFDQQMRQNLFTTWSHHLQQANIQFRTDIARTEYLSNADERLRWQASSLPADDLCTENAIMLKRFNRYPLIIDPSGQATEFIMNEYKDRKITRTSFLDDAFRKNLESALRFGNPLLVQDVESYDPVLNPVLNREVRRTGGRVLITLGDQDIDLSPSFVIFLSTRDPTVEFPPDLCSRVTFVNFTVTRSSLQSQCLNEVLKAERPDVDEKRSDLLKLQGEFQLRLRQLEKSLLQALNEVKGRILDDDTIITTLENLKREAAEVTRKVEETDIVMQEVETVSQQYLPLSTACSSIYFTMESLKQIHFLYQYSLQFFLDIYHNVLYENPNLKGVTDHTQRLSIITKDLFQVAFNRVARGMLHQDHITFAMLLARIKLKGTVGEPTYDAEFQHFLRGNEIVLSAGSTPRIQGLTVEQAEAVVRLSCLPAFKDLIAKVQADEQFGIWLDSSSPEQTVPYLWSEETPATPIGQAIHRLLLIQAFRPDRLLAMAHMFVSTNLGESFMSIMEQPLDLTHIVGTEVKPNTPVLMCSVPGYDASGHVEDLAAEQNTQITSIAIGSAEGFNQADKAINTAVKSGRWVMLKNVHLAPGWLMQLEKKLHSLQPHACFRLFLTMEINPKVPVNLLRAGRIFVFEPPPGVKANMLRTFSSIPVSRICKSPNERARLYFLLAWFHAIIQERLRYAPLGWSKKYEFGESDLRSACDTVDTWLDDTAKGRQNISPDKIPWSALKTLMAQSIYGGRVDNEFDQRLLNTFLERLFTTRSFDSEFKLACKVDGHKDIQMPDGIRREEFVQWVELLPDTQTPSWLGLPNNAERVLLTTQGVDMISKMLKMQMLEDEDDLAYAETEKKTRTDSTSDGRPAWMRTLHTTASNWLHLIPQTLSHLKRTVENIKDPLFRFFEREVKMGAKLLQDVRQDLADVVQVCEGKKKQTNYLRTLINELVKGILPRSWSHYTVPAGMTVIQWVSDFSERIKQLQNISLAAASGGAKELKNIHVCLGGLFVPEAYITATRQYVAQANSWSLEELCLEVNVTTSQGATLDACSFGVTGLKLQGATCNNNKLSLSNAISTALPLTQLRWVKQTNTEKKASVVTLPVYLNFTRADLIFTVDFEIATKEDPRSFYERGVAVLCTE

[2] = target: T1, D384GB (D384 with GFP at the linker N-terminus and BFP in AAA2); test: BFP-GFP FRET efficiency of linker swing against ATP, steady state; type: biochemical; details: no microtubules; ATP-regenerating system (creatine phosphate / creatine phosphate kinase); 100 nM dynein; conformational read-out, not a turnover Km; read-out: Km^E (k1/kT)

Km [1]: 27 ± 3 µM
Km [2]: 3.3 ± 0.3 µM
SMILES: Nc1ncnc2c1ncn2[C@@H]1O[C@H](COP(=O)(O)OP(=O)(O)OP(=O)(O)O)[C@@H](O)[C@H]1O [ATP]
